From a melting point compilation (Tetko et al.; mined from patent text by program, amines drawn as free bases though some values may be those of a salt)

| Structure (SMILES) | melting point [°C] |
| --- | --- |
| CCOC(=O)C(C(=O)OCC)N(Cc1ccccc1)Cc1ccc(OC)cc1OC | 62 to 63 |
| CCCCCCCCCCCC(=O)CO | 52 to 54 |
| C=CCN(CC=C)c1nc(NC(=O)Cc2cccs2)n2oc(=O)nc2n1 | 140 to 142 |
| CCN(C(=O)C1CC1)c1cccc(-c2ccnc3c(C#N)cnn23)c1 | 166 to 168 |
| CON=Cc1cc(-n2c(=O)cc(C(F)(F)F)n(C)c2=O)c(F)cc1Cl | 141 to 142 |
| O=S(=O)(c1ccc(O)cc1)c1ccc(F)cc1 | 150 to 154 |
| CCC(=O)c1ccc(C(=O)CC)cc1 | 98 to 101 |
| CCCCCC1(C=Cc2ccc(C(=O)O)cc2)CC2=C(C1)C(C)(C)CCC2(C)C | 121 to 123 |
| C#CCCCCCCCCCCCCCCCCCCCC(=O)OC(C)(C)C | 44 to 45 |
| C=CCOc1ccccc1OCC(O)CNC1CCc2ccccc2C1 (stereo unspecified) | 98 to 100 |
| CCCC(=O)c1cnc2c(OCCOC)cccc2c1Nc1ccccc1C | 75 to 77 |
| Cc1nc2nccc(-c3cccnc3)n2n1 | 244 to 245 |
| COCn1nc(-c2cc(C(C)(C)C)c(O)c(C(C)(C)C)c2)c2cccnc21 | 113 to 115 |
| c1ccc2[nH]c(-c3cc[nH]n3)nc2c1 | 335 to 338 |
| CCCCCCCCNC1=CC(=O)c2c(OC)ccc(OC)c2C1=O | 81 to 82 |
| CC(C)Cc1ccc2ccc(=O)[nH]c2n1 | 135 to 137 |
| CC(C)(C)c1nc2c(Cl)ccc(C(=O)O)c2o1 | 209 to 210 |
| Nc1c(Cl)cc(Cn2nc(-c3ccc(Cl)c(Cl)c3)oc2=O)c(O)c1Cl | 200 to 202 |
| Cc1ccc(C=C2C3=C(C=CC2(C)C)CC(C)CN3)cc1 (stereo unspecified) | 153 |
| CC(=O)N1N=C(c2ccc([N+](=O)[O-])cc2)c2ccc(Cl)cc2CC1C (stereo unspecified) | 174 to 175 |

| Structure (SMILES) | melting point [°C] |
| --- | --- |
| CCCCCC(CC(=O)O)c1ccc(OC)cc1OC (single isomer, unassigned; (+)) | 51 to 52 |
| ClCc1ccc(CCl)o1 | 27 to 28 |
| COC(=O)c1ncoc1CCNC(=O)OCc1ccccc1 | 68 to 70 |
| COCCOc1nc(NC(C)=O)nc2ccc(Cl)nc12 | 135 |
| CCc1cccc(C)c1CNc1cc(C(=O)N(C)C)cn2c(C)nnc12 | 201 |
| CC(C)C[C@@H](C(=O)N1CCN(C(c2ccc(F)cc2)c2ccc(F)cc2)CC1)N(C)C1CCOCC1 | 56 to 65 |
| COC(=O)[C@H](CO)NC(=O)[C@H](CS)NC(C)=O | 127 to 128 |
| CCOC(=O)C1CC2=C(CO1)C(=O)C(Cl)=CC2=O (stereo unspecified) | 83.5 |
| CCOC(=O)NC(=N)NCCSCc1[nH]cnc1C | 196 to 197 |
| CCCc1c(OCCCS(=O)(=O)c2nc3ccc(C(=O)O)cc3[nH]2)ccc(C(C)=O)c1O | 212 to 215 |
| CCCCc1sc2ccc([N+](=O)[O-])cc2c1C(=O)c1ccc(OCCCN(CCCC)CCCC)cc1 | 88 |
| CN(C)C(=N)Nc1ccccc1-c1cccc(F)c1 | 109 to 110 |
| CC(C)(C)c1cccc(CNC(c2ccccc2)C(NCc2cccc(C(C)(C)C)c2O)c2ccccc2)c1O (stereo unspecified) | 143 to 144 |
| CCOC(C)=C(C#N)C(=O)Nc1ccccc1C | 179 to 181 |
| CC(C)(C)c1onc(NC(=O)C2CC2)c1Cl | 130 to 131 |
| CC(=C[N+](=O)[O-])c1ccccc1O | 110 to 112 |
| CCCCC(C(=O)O)c1cccc(Oc2ccccc2C)c1O (stereo unspecified) | 83 to 84 |
| COC(=O)C(OC)(OC)C(=O)Nc1ccc(Br)cc1C | 99 to 103 |
| CCCCCCCCCCCCc1c(C(=O)OCC)[nH]c(C)c1C | 70 to 71 |

More lines, now with the values ahead:

| melting point [°C] | Structure (SMILES) |
| --- | --- |
| 214 to 217 | Cc1ccc(-c2c(-c3ccncc3)nc(-c3c(Cl)cccc3Cl)n2C)cc1 |
| 133 | CCS(=O)(=O)c1ccc2cc(C(C)=O)ccc2c1 |
| 125 to 129 | Cn1nc(N2c3ccccc3C[C@H]2C(=O)N2CCCC(C)(C)C2)ccc1=O |
| 150 | CNC(=O)c1cccc(NC(=O)Cc2cccc(OCc3ccccc3)c2)c1 |
| 143 | CCOc1cc(Cn2[nH]c(N)cc2=O)ccc1Cl |
| 185 to 188 | O=C(CCN1CCN(c2cccc(C(F)(F)F)c2)CC1)Nc1ccccc1[N+](=O)[O-] |
| 151 to 152 | Cc1c(-c2ccccc2F)[nH]c(NCc2ccccc2)c1C#N |
| 271 to 273 | COC(=O)c1ccccc1C=C1C(=O)Nc2ccc(S(=O)(=O)NC(C)C)cc21 |
| 245 to 246 | Nc1nnc(-c2ccc3occ(-c4cc(F)ccc4F)c3c2)o1 |
| 99 | CCc1ccc2[nH]c(C(=O)OCc3ccccc3)cc2c1 |
| 124 to 127 | CCNC(CC)c1ccc(Cl)c2nc3n(c12)CCCN3c1ccc(Cl)cc1Cl (stereo unspecified) |
| 194 to 196 | Oc1ccc(C2(c3ccccc3)OCCCC2c2ccccc2)cc1 (stereo unspecified) |
| 279 to 282 | O=C(Nc1cccc(CC(F)(F)F)c1)Nc1ccc2c(c1)COC2=O |
| 169 to 171 | Cc1cccc(COCC2OC(n3cc(C(F)(F)F)c(=O)[nH]c3=O)CC2O)c1 (stereo unspecified) |
| 203 to 205 | CS(=O)(=O)c1ccc(-n2nc(C(F)(F)F)cc2-c2ccc(-c3cscn3)cc2)cc1CO |
| 66 to 68 | COC(=O)Cc1ccc(CNC(=O)C2Cc3ccccc3N2S(=O)(=O)c2ccc(-c3cccc(C)c3)cc2)cc1 (stereo unspecified) |

| melting point [°C] | Structure (SMILES) |
| --- | --- |
| 250 to 252 | CCCc1nc2c(N)nc3ccccc3c2n1CC1(O)CCCCC1 |
| 112 to 115 | COc1cc(CC(=O)NCCOc2ccc(C(=O)O)cc2[N+](=O)[O-])ccc1N(C(N)=O)c1ccccc1C |
| 266 | N#Cc1ccc(CC23CCCN2C(=O)N(c2cc(Cl)cc(-n4cccc4)c2)C3=O)cc1 (stereo unspecified) |
| 64 to 64.5 | Cc1ccc(S(=O)(=O)C(C)(C)C(=O)c2ccccc2)cc1 |
| 228 to 229 | O=C(O)c1ccc(OCCC2CC(=O)N(c3ccc(Cl)cc3)C2)cc1 (stereo unspecified) |
| 202 to 204 | CCCc1[nH]c(=O)oc1-c1ccnc(-c2ccccc2)c1 |
| 58 to 60 | COc1cc(C(=O)N2CCC(CCN3CCC(C(=O)c4nc5ccccc5n4Cc4ccc(F)cc4)CC3)(c3ccc(F)cc3F)C2)cc(OC)c1OC (stereo unspecified) |
| 250 to 253 | CC(N)(C(=O)O)c1ccc(NC=C2C(=O)NC(=O)c3ccc(Br)cc32)cc1 (stereo unspecified) |
| 177 to 179 | CC1=NC(NC(=O)Nc2cccc(C)c2)C(=O)N(CC(=O)N2CC3CCC(CC3)C2)c2c(C)cccc21 (stereo unspecified) |
| 261 to 262 | Cc1cc(N2CCN(c3ccncc3)CC2)ccc1OCCCC(=O)O |
| 153 | CON=C(C)c1ccc(-c2ccccc2NC(=O)c2c(C)nn(C)c2F)cc1 |
| 158 to 162 | N#Cc1cc(N)ccc1N1CCC(c2ccccc2)CC1 |
| 124 to 127 | CCc1nn(C2CCCCC2)c2cc(C(=O)Nc3c(Cl)cncc3Cl)ccc12 |
| 115 | CC(=O)OCc1cc(=O)c(Oc2ccc(Cl)cc2)c(-c2ccc(S(C)(=O)=O)cc2)o1 |
| 151 to 153 | O=S(=O)(Nc1ccc2c(OCc3ccc(-c4ccc(Cl)cc4)cc3F)cccc2c1)C(F)(F)F |
| 228 to 229 | O=C(Nc1cccnn1)N1CCN(c2nccc(-c3ccccc3F)n2)CC1 |
